Our source for the Kd and IC50 values is US20240025906A1 (NEURON23, INC., priority 2022, published 2024).

Structures are written as SMILES.

One assay addresses T1, TYK2 JH2 (Homo sapiens, UniProt P29597).
T1 construct: purchased DiscoverX (KINOMEscan KdELECT service); host or cells: E. coli BL21-derived (T7 phage display) or HEK-293
As to the kind of experiment: TYK2 JH2 binding assay (KINOMEscan KdELECT competitive binding). As to conditions: TYK2 JH2 domain, KINOMEscan KdELECT (Assay A); read-out: Biochemical TYK2_DiscoverX_JH2_BND_Kd. In short, it runs like this:
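The assay measures displacement of DNA- or phage-tagged TYK2 pseudokinase domain from an affinity resin; compound binding lowers the amount captured, read by qPCR. Incubation lasts 1 h at room temperature.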

Assay [1] concerns JAK1/TYK2 pSTAT5 (Tyr694/699) in THP-1 cell line. As to the kind of experiment: IFNa-stimulated JAK1/TYK2 pSTAT5 (Tyr694/699) inhibition cellular assay, AlphaLISA. In kind it is cell-based. As to conditions: Homo sapiens; THP-1 cells, IFNa-stimulated, AlphaLISA (Assay B); read-out: Cellular_THP1_IFNa-pSTATS_TYK2. The procedure, abridged:
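THP-1 cells (2e4/well) in HBSS preincubated 1 h at 37° C. with compound (final 10000–0.04 nM, 8 points, 6-fold), then stimulated with IFNa (100 ng/mL stock) for 30 min before lysis. pSTAT5 (Tyr694/699) read by AlphaLISA at 615 nm; IC50 from four-parameter logistic fit with bottom fixed at 0 and Hill slope at −1.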

T1 sequence (P29597 589-875 limits assumed): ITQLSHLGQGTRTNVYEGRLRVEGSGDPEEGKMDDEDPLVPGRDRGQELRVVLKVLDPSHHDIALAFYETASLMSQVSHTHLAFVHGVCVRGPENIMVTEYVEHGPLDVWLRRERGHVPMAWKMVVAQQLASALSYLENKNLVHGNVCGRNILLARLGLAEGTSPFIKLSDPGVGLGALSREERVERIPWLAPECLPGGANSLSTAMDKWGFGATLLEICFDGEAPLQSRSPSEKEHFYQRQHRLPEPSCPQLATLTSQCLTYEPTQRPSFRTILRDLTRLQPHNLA

`CNc1ncc(C#Cc2ccc(N3CCCC3=O)cc2)c2cc(NC(=O)C3CC3)ncc12` [Example 674, N-(8-(methylamino)-5-((4-(2-oxopyrrolidin-1-yl)phenyl)ethynyl)-2,7-naphthyridin-3-yl)cyclopropanecarboxamide]: on TYK2 JH2, the Kd is no more than 100 nM. For the same compound, the IC50 in assay [1] is no more than 500 nM.

For `CNc1ncc(C#Cc2ccc(N3CCOC3=O)cc2)c2cc(NC(=O)C3CC3)ncc12` [Example 675, N-(8-(methylamino)-5-((4-(2-oxooxazolidin-3-yl)phenyl)ethynyl)-2,7-naphthyridin-3-yl)cyclopropanecarboxamide], the Kd on TYK2 JH2 was no more than 100 nM. Moreover, in assay [1], the IC50 is no more than 500 nM.

For `CNc1ncc(C#Cc2nc3ccc(OC)cn3n2)c2cc(NC(=O)C3CC3)ncc12` [Example 676, N-(5-((6-methoxy-[1,2,4]triazolo[1,5-a]pyridin-2-yl)ethynyl)-8-(methylamino)-2,7-naphthyridin-3-yl)cyclopropanecarboxamide], the Kd at TYK2 JH2 is no more than 100 nM. For the same compound, in assay [1], the IC50 was no more than 500 nM.

Consider `CNc1ncc(C#Cc2ccc(OCC3COC3)cc2)c2cc(NC(=O)C3CC3)ncc12` [Example 677, N-(8-(methylamino)-5-((4-(oxetan-3-ylmethoxy)phenyl)ethynyl)-2,7-naphthyridin-3-yl)cyclopropanecarboxamide], for which, at TYK2 JH2, the Kd is no more than 100 nM. Further, in assay [1], the IC50 is no more than 500 nM.

On to `CNc1ncc(C#Cc2ccc(OCC3COC3)cn2)c2cc(NC(=O)C3CC3)ncc12` [Example 678, N-(8-(methylamino)-5-((5-(oxetan-3-ylmethoxy)pyridin-2-yl)ethynyl)-2,7-naphthyridin-3-yl)cyclopropanecarboxamide], for which the Kd on TYK2 JH2 was no more than 100 nM. Moreover, the IC50 in assay [1] is no more than 500 nM.

For the compound `CNc1ncc(C#Cc2ccc(OCC3CN(C(C)=O)C3)cc2)c2cc(NC(=O)C3CC3)ncc12` [Example 679, N-(5-((4-((1-acetylazetidin-3-yl)methoxy)phenyl)ethynyl)-8-(methylamino)-2,7-naphthyridin-3-yl)cyclopropanecarboxamide], on TYK2 JH2, the Kd was no more than 100 nM. Besides, the IC50 in assay [1] is no more than 500 nM.

As to `CNc1ncc(C#Cc2cc3ccccn3n2)c2cc(NC(=O)C3CC3)ncc12` [Example 680, N-(8-(methylamino)-5-(pyrazolo[1,5-a]pyridin-2-ylethynyl)-2,7-naphthyridin-3-yl)cyclopropanecarboxamide], the Kd at TYK2 JH2 was no more than 100 nM. The IC50 in assay [1] is no more than 500 nM.

As to `CNc1ncc(C#Cc2ccc3nnn(C(C)C)c3c2)c2cc(NC(=O)C3CC3)ncc12` [Example 681, N-(5-((1-isopropyl-1H-benzo[d][1,2,3]triazol-6-yl)ethynyl)-8-(methylimino)-2,7-naphthyridin-3-yl)cyclopropanecarboxamide], at TYK2 JH2, the Kd was no more than 100 nM. Further, the IC50 in assay [1] is no more than 500 nM.

In the case of `CNc1ncc(C#Cc2ccc3nnn(CCOC)c3c2)c2cc(NC(=O)C3CC3)ncc12` [Example 682, N-(5-((1-(2-methoxyethyl)-1H-benzo[d][1,2,3]triazol-6-yl)ethynyl)-8-(methylamino)-2,7-naphthyridin-3-yl)cyclopropanecarboxamide], at TYK2 JH2, the Kd was no more than 100 nM. The IC50 in assay [1] was no more than 500 nM.

Take `CCn1nnc2ccc(C#Cc3cnc(NC)c4cnc(NC(=O)C5CC5)cc34)cc21` [Example 683, N-(5-((1-ethyl-1H-benzo[d][1,2,3]triazol-6-yl)ethynyl)-8-(methylamino)-2,7-naphthyridin-3-yl)cyclopropanecarboxamide]: the Kd on TYK2 JH2 was no more than 100 nM. Also, the IC50 in assay [1] is no more than 500 nM.

`CNc1ncc(C#Cc2ccc3nnn(CC(C)(C)O)c3c2)c2cc(NC(=O)C3CC3)ncc12` [Example 684, N-(5-((1-(2-hydroxy-2-methylpropyl)-1H-benzo[d][1,2,3]triazol-6-yl)ethynyl)-8-(methylamino)-2,7-naphthyridin-3-yl)cyclopropanecarboxamide]: the Kd at TYK2 JH2 was no more than 100 nM. For the same compound, the IC50 in assay [1] is no more than 500 nM.

For the compound `CNc1ncc(C#Cc2cc3c(cc2F)nnn3C)c2cc(NC(=O)C3CC3)ncc12` [Example 685, N-(5-((5-fluoro-1-methyl-1H-benzo[d][1,2,3]triazol-6-yl)ethynyl)-8-(methylamino)-2,7-naphthyridin-3-yl)cyclopropanecarboxamide], on TYK2 JH2, the Kd is no more than 100 nM. Besides, the IC50 in assay [1] is no more than 500 nM.

Consider `CNc1ncc(C#Cc2ccc3nnn(CCC#N)c3c2)c2cc(NC(=O)C3CC3)ncc12` [Example 686, N-(5-((1-(2-cyanoethyl)-1H-benzo[d][1,2,3]triazol-6-yl)ethynyl)-8-(methylamino)-2,7-naphthyridin-3-yl)cyclopropanecarboxamide], for which the Kd at TYK2 JH2 was no more than 100 nM. For the same compound, the IC50 in assay [1] was no more than 500 nM.

As for `CNc1ncc(C#Cc2ccc3nnn(C4CC4)c3c2)c2cc(NC(=O)C3CC3)ncc12` [Example 687, N-(5-((1-cyclopropyl-1H-benzo[d][1,2,3]triazol-6-yl)ethynyl)-8-(methylimino)-2,7-naphthyridin-3-yl)cyclopropanecarboxamide], the Kd on TYK2 JH2 is no more than 100 nM. Besides, in assay [1], the IC50 was no more than 500 nM.

On to `CNc1ncc(C#Cc2ccc3nnn(CCCOC)c3c2)c2cc(NC(=O)C3CC3)ncc12` [Example 688, N-(5-((1-(3-methoxypropyl)-1H-benzo[d][1,2,3]triazol-6-yl)ethynyl)-8-(methylamino)-2,7-naphthyridin-3-yl)cyclopropanecarboxamide], for which the Kd on TYK2 JH2 was no more than 100 nM. Further, the IC50 in assay [1] is no more than 500 nM.

Regarding `CNc1ncc(C#Cc2cc3c(cn2)nnn3C)c2cc(NC(=O)C3CC3)ncc12` [Example 689, N-(5-((1-methyl-1H-[1,2,3]triazolo[4,5-c]pyridin-6-yl)ethynyl)-8-(methylamino)-2,7-naphthyridin-3-yl)cyclopropanecarboxamide], on TYK2 JH2, the Kd is no more than 100 nM. In addition, in assay [1], the IC50 was no more than 500 nM.

As for `CNc1ncc(C#Cc2ccc(O[C@@H]3CCOC3)cc2)c2cc(NC(=O)C3CC3)ncc12` [Example 690, (R)—N-(8-(methylamino)-5-((4-((tetrahydrofuran-3-yl)oxy)phenyl)ethynyl)-2,7-naphthyridin-3-yl)cyclopropanecarboxamide], the Kd at TYK2 JH2 is no more than 100 nM. In addition, in assay [1], the IC50 is no more than 500 nM.

With `CNc1ncc(C#Cc2ccc(O[C@H]3CCOC3)cc2)c2cc(NC(=O)C3CC3)ncc12` [Example 691, (S)—N-(8-(methylamino)-5-((4-((tetrahydrofuran-3-yl)oxy)phenyl)ethynyl)-2,7-naphthyridin-3-yl)cyclopropanecarboxamide], on TYK2 JH2, the Kd was no more than 100 nM. Further, the IC50 in assay [1] is no more than 500 nM.

Regarding `CNc1ncc(C#Cc2ccc3nc(COC)n(C)c3c2)c2cc(NC(=O)C3CC3)ncc12` [Example 692, N-(5-((2-(methoxymethyl)-1-methyl-1H-benzoimidazol-6-yl)ethynyl)-8-(methylamino)-2,7-naphthyridin-3-yl)cyclopropanecarboxamide], on TYK2 JH2, the Kd is no more than 100 nM. Moreover, the IC50 in assay [1] is no more than 500 nM.

Take `CNc1ncc(C#Cc2ccc3ncn(CCCOC)c3c2)c2cc(NC(=O)C3CC3)ncc12` [Example 693, N-(5-((1-(3-methoxypropyl)-1H-benzo[d]imidazol-6-yl)ethynyl)-8-(methylamino)-2,7-naphthyridin-3-yl)cyclopropanecarboxamide]: the Kd on TYK2 JH2 was no more than 100 nM. Also, the IC50 in assay [1] is no more than 500 nM.

As for `CNc1ncc(C#Cc2ccc3ncn(CCCC#N)c3c2)c2cc(NC(=O)C3CC3)ncc12` [Example 694, N-(5-((1-(3-cyanopropyl)-1H-benzo[d]imidazol-6-yl)ethynyl)-8-(methylamino)-2,7-naphthyridin-3-yl)cyclopropanecarboxamide], at TYK2 JH2, the Kd is no more than 100 nM. The IC50 in assay [1] was no more than 500 nM.

Take `CNc1ncc(C#Cc2ccc3c(c2)ncn3CCCC#N)c2cc(NC(=O)C3CC3)ncc12` [Example 695, N-(5-((1-(3-cyanopropyl)-1H-benzo[d]imidazol-5-yl)ethynyl)-8-(methylamino)-2,7-naphthyridin-3-yl)cyclopropanecarboxamide]: the Kd on TYK2 JH2 was no more than 100 nM. The IC50 in assay [1] was no more than 500 nM.

On to `CNc1ncc(C#Cc2ccc3c(c2)OCC(CO)O3)c2cc(NC(=O)C3CC3)ncc12` (stereo not shown) [Example 696, N-(5-((2-(hydroxymethyl)-2,3-dihydrobenzo[b][1,4]dioxin-6-yl)ethynyl)-8-(methylamino)-2,7-naphthyridin-3-yl)cyclopropanecarboxamide], for which the Kd at TYK2 JH2 was no more than 100 nM. Besides, the IC50 in assay [1] is no more than 500 nM.

Regarding `CNc1ncc(C#Cc2ccc3c(c2)OCC(COC)O3)c2cc(NC(=O)C3CC3)ncc12` (stereo not shown) [Example 697, N-(5-((2-(methoxymethyl)-2,3-dihydrobenzo[b][1,4]dioxin-6-yl)ethynyl)-8-(methylamino)-2,7-naphthyridin-3-yl)cyclopropanecarboxamide], at TYK2 JH2, the Kd is no more than 100 nM. Further, the IC50 in assay [1] was no more than 500 nM.

`CNc1ncc(C#Cc2cc3c(cc2C)nnn3C)c2cc(NC(=O)C3CC3)ncc12` [Example 700, N-(5-((1,5-dimethyl-1H-benzo[d][1,2,3]triazol-6-yl)ethynyl)-8-(methylamino)-2,7-naphthyridin-3-yl)cyclopropanecarboxamide]: at TYK2 JH2, the Kd was no more than 100 nM. Moreover, the IC50 in assay [1] is no more than 500 nM.

As to `CNc1ncc(C#Cc2ccc(OCC3(C)COC3)cc2)c2cc(NC(=O)C3CC3)ncc12` [Example 701, N-(8-(methylamino)-5-((4-((3-methyloxetan-3-yl)methoxy)phenyl)ethynyl)-2,7-naphthyridin-3-yl)cyclopropanecarboxamide], the Kd at TYK2 JH2 was no more than 100 nM. The IC50 in assay [1] was no more than 500 nM.
